Experimental data reported in patent US20170190671A1, “BIS(ARYL)CATECHOL DERIVATIVES AS HERBICIDES” (E I DU PONT DE NEMOURS AND COMPANY, priority 2014, published 2017).

What was measured:
Type in all cases: in vivo
[1] = tested on: waterhemp (common waterhemp, Amaranthus rudis); assay: Test C preemergence; conditions: Amaranthus tuberculatus, pre-emergence, preemergence, scale 0 to 100, read-out: Plant response rating, Waterhemp; for pest or weed control at 31 g/ha: 31 g ai/ha; for pest or weed control at 62 g/ha: 62 g ai/ha; for pest or weed control at 125 g/ha: 125 g ai/ha; for pest or weed control at 250 g/ha: 250 g ai/ha
Procedure, shortened: (§1)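 Greenhouse test; preemergence to seeds in loam/sand soil, or postemergence spray to 2-18 cm, 1- to 4-leaf plants in peat/vermiculite medium; compound in non-phytotoxic solvent plus surfactant. Visual rating vs controls at 13-15 d, 0 = no effect, 100 = complete control.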

[2] = tested on: Italian ryegrass (Lolium multiflorum); assay: Test C preemergence; conditions: Lolium multiflorum, pre-emergence, 336 h, preemergence, scale 0 to 100, read-out: Plant response rating, Ryegrass, Italian; for pest or weed control at 31 g/ha: 31 g ai/ha; for pest or weed control at 62 g/ha: 62 g ai/ha; for pest or weed control at 125 g/ha: 125 g ai/ha; for pest or weed control at 250 g/ha: 250 g ai/ha
Procedure, shortened: as §1

[3] = tested on: barnyardgrass (Echinochloa crus-galli); assay: Test A postemergence; conditions: Echinochloa crus-galli, post-emergence, 240 h, 1000 g ai/ha, 0 to 100 scale, 0 no effect, 100 complete control, read-out: Plant response rating, Barnyardgrass
Procedure, shortened: (§2)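 Compounds in non-phytotoxic solvent with surfactant applied as soil spray preemergence, or postemergence to plants 2-10 cm at one- to two-leaf stage, in loam/sand. After approximately 10 days in greenhouse, injury rated visually versus untreated controls, 0 (no effect) to 100 (complete control).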

[4] = tested on: giant foxtail (Setaria faberii); assay: Test A postemergence; conditions: Setaria faberi, post-emergence, 240 h, 1000 g ai/ha, 0 to 100 scale, read-out: Plant response rating, Foxtail, Giant
Procedure, shortened: as §2

kochia (Kochia scoparia) [5] = assay: Test A postemergence; conditions: Bassia scoparia, post-emergence, 240 h, 1000 g ai/ha, 0 to 100 scale, read-out: Plant response rating, Kochia
Procedure, shortened: as §2

[6] = tested on: galium (catchweed bedstraw, Galium aparine); assay: Test A postemergence; conditions: Galium, post-emergence, 240 h, 1000 g ai/ha, 0 to 100 scale, read-out: Plant response rating, Galium
Procedure, shortened: as §2

[7] = tested on: ragweed (common ragweed, Ambrosia elatior); assay: Test A postemergence; conditions: Ambrosia artemisiifolia, post-emergence, 240 h, 1000 g ai/ha, 0 to 100 scale, read-out: Plant response rating, Ragweed
Procedure, shortened: as §2

[8] = tested on: wheat (Triticum aestivum); assay: Test A postemergence; conditions: Triticum aestivum, post-emergence, 240 h, 1000 g ai/ha, 0 to 100 scale, read-out: Plant response rating, Wheat
Procedure, shortened: as §2

[9] = tested on: pigweed (Amaranthus retroflexus); assay: Test A postemergence; conditions: Amaranthus retroflexus, post-emergence, 240 h, 1000 g ai/ha, 0 to 100 scale, read-out: Plant response rating, Pigweed
Procedure, shortened: as §2

corn (Zea mays) = assay: Test A postemergence; conditions: Zea mays, post-emergence, 240 h, 1000 g ai/ha, 0 to 100 scale
Procedure, shortened: as §2

[10] = tested on: Italian ryegrass (Lolium multiflorum); assay: Test A postemergence; conditions: Lolium multiflorum, post-emergence, 240 h, 1000 g ai/ha, 0 to 100 scale, read-out: Plant response rating, Ryegrass, Italian
Procedure, shortened: as §2

[11] = tested on: blackgrass (Alopecurus myosuroides); assay: Test A postemergence; conditions: Alopecurus myosuroides, post-emergence, 240 h, 1000 g ai/ha, 0 to 100 scale, read-out: Plant response rating, Blackgrass
Procedure, shortened: as §2

[12] = tested on: barnyardgrass (Echinochloa crus-galli); assay: Test A preemergence; conditions: Echinochloa crus-galli, pre-emergence, 240 h, 1000 g ai/ha, 0 to 100 scale, read-out: Plant response rating, Barnyardgrass
Procedure, shortened: as §2

[13] = tested on: giant foxtail (Setaria faberii); assay: Test A preemergence; conditions: Setaria faberi, pre-emergence, 240 h, 1000 g ai/ha, 0 to 100 scale, read-out: Plant response rating, Foxtail, Giant
Procedure, shortened: as §2

kochia (Kochia scoparia) [14] = assay: Test A preemergence; conditions: Bassia scoparia, pre-emergence, 240 h, 1000 g ai/ha, 0 to 100 scale, read-out: Plant response rating, Kochia
Procedure, shortened: as §2

[15] = tested on: ragweed (common ragweed, Ambrosia elatior); assay: Test A preemergence; conditions: Ambrosia artemisiifolia, pre-emergence, 240 h, 1000 g ai/ha, 0 to 100 scale, read-out: Plant response rating, Ragweed
Procedure, shortened: as §2

[16] = tested on: pigweed (Amaranthus retroflexus); assay: Test A preemergence; conditions: Amaranthus retroflexus, pre-emergence, 240 h, 1000 g ai/ha, 0 to 100 scale, read-out: Plant response rating, Pigweed
Procedure, shortened: as §2

[17] = tested on: Italian ryegrass (Lolium multiflorum); assay: Test A preemergence; conditions: Lolium multiflorum, pre-emergence, 240 h, 1000 g ai/ha, 0 to 100 scale, read-out: Plant response rating, Ryegrass, Italian
Procedure, shortened: as §2

[18] = tested on: barnyardgrass (Echinochloa crus-galli); assay: Test B flooded paddy; conditions: Echinochloa crus-galli, 336 h; 250 g ai/ha, Flood, 13 to 15 days, scale 0 (no effect) to 100 (complete control); read-out: Plant response rating, Barnyardgrass
Procedure, shortened: (§3)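 Ratings were visual and made relative to untreated controls after 13 to 15 greenhouse days.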

[19] = tested on: sedge, umbrella (small-flower umbrella sedge, Cyperus difformis); assay: Test B flooded paddy; conditions: Cyperus difformis, 336 h; 250 g ai/ha, Flood, 13 to 15 days, scale 0 (no effect) to 100 (complete control); read-out: Plant response rating, Sedge, Umbrella
Procedure, shortened: as §3

rice (Oryza sativa) = assay: Test B flooded paddy; conditions: Oryza sativa, 336 h; 250 g ai/ha, Flood, 13 to 15 days, scale 0 (no effect) to 100 (complete control); read-out: Plant response rating, Rice
Procedure, shortened: as §3

[20] = tested on: ducksalad (Heteranthera limosa); assay: Test B flooded paddy; conditions: Heteranthera limosa, 336 h; 250 g ai/ha, Flood, 13 to 15 days, scale 0 (no effect) to 100 (complete control); read-out: Plant response rating, Ducksalad
Procedure, shortened: as §3

SMILES | pest or weed control at 31 g/ha [1] [%] | pest or weed control at 62 g/ha [1] [%] | pest or weed control at 125 g/ha [1] [%] | pest or weed control at 250 g/ha [1] [%] | pest or weed control at 31 g/ha [2] [%] | pest or weed control at 62 g/ha [2] [%] | pest or weed control at 125 g/ha [2] [%] | pest or weed control at 250 g/ha [2] [%] | pest or weed control at 1000 g/ha [3] [%] | pest or weed control at 1000 g/ha [4] [%] | pest or weed control at 1000 g/ha (kochia (Kochia scoparia) [5]) [%] | pest or weed control at 1000 g/ha [6] [%] | pest or weed control at 1000 g/ha [7] [%] | plant injury at 1000 g/ha [8] [%] | pest or weed control at 1000 g/ha [9] [%] | Corn plant response rating (crop injury, 0 = no effect, 100 = complete kill) at 1000 g/ha (corn (Zea mays)) [%] | pest or weed control at 1000 g/ha [10] [%] | pest or weed control at 1000 g/ha [11] [%] | pest or weed control at 1000 g/ha [12] [%] | pest or weed control at 1000 g/ha [13] [%] | other results
Clc1cnc(Oc2cccc(Cl)c2Oc2ncc(Br)cn2)nc1 [Compound 17, 5-bromo-2-[2-chloro-6-[(5-chloro-2-pyrimidinyl)oxy]phenoxy]pyrimidine] | 100 | 100 | 100 | 100 | 20 | 40 | 90 | 95 | 100 | 100 | 100 | 100 | 90 | 100 | 100 | 100 | 100 | 100 | 100 | 100 | pest or weed control at 1000 g/ha (kochia (Kochia scoparia) [14]): 100%; pest or weed control at 1000 g/ha [15]: 100%; pest or weed control at 1000 g/ha [16]: 100%; pest or weed control at 1000 g/ha [17]: 100%; pest or weed control at 250 g/ha [18]: 20%; pest or weed control at 250 g/ha [19]: 100%; plant injury at 250 g/ha (rice (Oryza sativa)): 35%; pest or weed control at 250 g/ha [20]: 100%
Fc1cnc(Oc2c(Cl)cccc2Oc2ncc(Cl)cn2)nc1 [Compound 18, 5-chloro-2-[5-chloro-6-[(5-fluoro-2-pyrimidinyl)oxy]phenoxy]pyrimidine] | 100 | 100 | 100 | 100 | 30 | 70 | 85 | 95 | 80 | 100 | 100 | 100 | 20 | 50 | 100 | 50 | 100 | 100 | 100 | 100 | pest or weed control at 1000 g/ha (kochia (Kochia scoparia) [14]): 100%; pest or weed control at 1000 g/ha [15]: 30%; pest or weed control at 1000 g/ha [16]: 100%; pest or weed control at 1000 g/ha [17]: 70%; pest or weed control at 250 g/ha [18]: 50%; pest or weed control at 250 g/ha [19]: 100%; plant injury at 250 g/ha (rice (Oryza sativa)): 80%; pest or weed control at 250 g/ha [20]: 100%
Fc1cnc(Oc2c(Br)cccc2Oc2ncc(Cl)cn2)nc1 [Compound 22] | 100 | 100 | 100 | 100 | 5 | 30 | 80 | 90 | 90 | 90 | 100 | 90 | 90 | 70 | 100 | 70 | 90 | 70 | 100 | 100 | pest or weed control at 1000 g/ha (kochia (Kochia scoparia) [14]): 100%; pest or weed control at 1000 g/ha [15]: 90%; pest or weed control at 1000 g/ha [16]: 100%; pest or weed control at 1000 g/ha [17]: 90%; pest or weed control at 250 g/ha [18]: 45%; pest or weed control at 250 g/ha [19]: 98%; plant injury at 250 g/ha (rice (Oryza sativa)): 45%; pest or weed control at 250 g/ha [20]: 100%
